Here are results for 40 compounds from US7662825B2, “N-pyrazinyl-phenylsulphonamides and their use in the treatment of chemokine mediated diseases” (AstraZeneca AB, priority 2002, dated 2010).

With `O=S(=O)(Nc1nc(Cl)cnc1OCc1cccnc1)c1cccc(Cl)c1Cl` [Example 99, 2,3-Dichloro-N-[6-chloro-3-(3-pyridinylmethoxy)-2-pyrazinyl]benzenesulphonamide], the melting point (usually the temperature of the solid-liquid transition) lay within 203 to 204 °C.

As for `COc1nc(Cl)cnc1NS(=O)(=O)c1ccccc1Cl` [Example 51, 2-Chloro-N-(5-chloro-3-methoxy-2-pyrazinyl)benzenesulphonamide], the melting point is 190 to 192 °C.

As for `COc1nc(C)c(C)nc1NS(=O)(=O)c1cccc(Cl)c1Cl` [Example 65, 2,3-Dichloro-N-(3-methoxy-5,6-dimethyl-2-pyrazinyl)benzenesulphonamide], the melting point is 165 to 166 °C.

For the compound `O=S(=O)(Nc1ncc(Cl)nc1OCc1ccc(CO)cc1)c1cccc(Cl)c1Cl` [Example 109, 2,3-Dichloro-N-[5-chloro-3-(4-hydroxymethylphenylmethoxy)-2-pyrazinyl]benzenesulphonamide], the melting point lay within 177 to 178 °C.

As for `O=S(=O)(Nc1ncc(Cl)nc1OCc1ccccn1)c1cccc(Cl)c1Cl` [Example 89, 2,3-dichloro-N-[5-chloro-3-(2-pyridinylmethoxy)-2-pyrazinyl]benzenesulphonamide], the melting point was 147 to 148 °C.

Consider `COc1nc(-n2cncn2)cnc1NS(=O)(=O)c1cccc(Cl)c1Cl` [Example 167, 2,3-Dichloro-N-[3-methoxy-5-([1,2,4]-1-triazolyl)-2-pyrazinyl]benzenesulphonamide], for which the melting point was 248 to 249 °C.

`COc1nc(OCCN)cnc1NS(=O)(=O)c1cccc(Cl)c1Cl` [Example 115, N-[5-(2-Aminoethoxy)-3-methoxy-2-pyrazinyl]-2,3-dichlorobenzenesulphonamide]: the melting point was 200 to 205 °C.

Consider `COc1nc(Br)cnc1NS(=O)(=O)c1ccccc1C#N` [Example 184, N-(5-Bromo-3-methoxypyrazinyl)-2-cyanobenzenesulphonamide], for which the melting point lay within 190 to 191.5 °C.

The compound `COc1nc(C)cnc1NS(=O)(=O)c1cccc(Cl)c1` [Example 45, 3-Chloro-N-(3-methoxy-5-methyl-2-pyrazinyl)benezenesulphonamide] had a melting point of 123 to 125 °C.

The compound `COC(=O)CCSc1cnc(NS(=O)(=O)c2cccc(Cl)c2Cl)c(OC)n1` [Example 117] showed a melting point of 146 to 148 °C.

The compound `CCCCOc1nc(Cl)cnc1NS(=O)(=O)c1cccc(Cl)c1Cl` [Example 91, N-(3-Butoxy-5-chloro-2-pyrazinyl)-2,3-dichlorobenzenesulphonamide] had a melting point of 133 to 134 °C.

Turning to `COc1nc(SCc2ccccc2Cl)cnc1NS(=O)(=O)c1cccc(Cl)c1Cl` [Example 84, 2,3-Dichloro-N-[5-(2-chlorobenzylsulphanyl)-3-methoxy-2-pyrazinyl]benzenesulphonamide], the melting point fell in the range of 119 to 120 °C.

The compound `O=S(=O)(Nc1ncc(Cl)nc1OCc1cccc(CO)c1)c1cccc(Cl)c1Cl` [Example 106, 2,3-Dichloro-N-[5-chloro-3-(3-hydroxymethylphenylmethoxy)-2-pyrazinyl]benzenesulphonamide] returned a melting point of 162 to 163 °C.

Regarding `O=S(=O)(Nc1nc(Cl)cnc1OCc1ccccn1)c1cccc(Cl)c1Cl` [Example 100, 2,3-Dichloro-N-[6-chloro-3-(2-pyridinylmethoxy)-2-pyrazinyl]benzenesulphonamide], the melting point was 201 to 203 °C.

Take `C#CCOc1nc(Cl)cnc1NS(=O)(=O)c1cccc(Cl)c1Cl` [Example 188, 2,3-Dichloro-N-[5-chloro-3-(2-propynyloxy)-2-pyrazinyl]benzenesulphonamide]: the melting point is 138 to 139 °C.

On to `COCCNc1nc(OC)c(NS(=O)(=O)c2cccc(Cl)c2Cl)nc1Cl` [Example 75, 2,3-Dichloro-N-{6-chloro-3-methoxy-5-([2-methoxyethyl)amino]-2-pyrazinyl}benzenesulphonamide], for which the melting point lay in the range of 177 to 178 °C.

Regarding `COc1nc(Oc2ccc(C(=O)O)cc2)cnc1NS(=O)(=O)c1cccc(Cl)c1Cl` [Example 73, 4-[5-(2,3-Dichlorobenzenesulphonylamino)-6-methoxy-2-pyrazinyloxy]benzoic acid], the melting point fell in the range of 186 to 187 °C.

The compound `CNCc1cccc(COc2nc(Cl)cnc2NS(=O)(=O)c2cccc(Cl)c2Cl)c1` [Example 107, 2,3-Dichloro-N-[5-chloro-3-(3-methylaminomethylphenylmethoxy)-2-pyrazinyl]benzenesulphonamide] showed a melting point of 167 to 168 °C.

For `COc1nc(Br)c(Cl)nc1NS(=O)(=O)c1cccc(Cl)c1Cl` [Example 125, N-(5-Bromo-6-chloro-3-methoxy-2-pyrazinyl)-2,3-dichlorobenzenesulphonamide], the melting point lay within 177 to 178 °C.

Compound `O=S(=O)(Nc1ncc(Br)nc1OC[C@@H]1CCCN1)c1cccc(Cl)c1Cl` [Example 133, N-[5-Bromo-3-[(2S)-2-pyrrolidinylmethoxy]-2-pyrazinyl]-2,3-dichlorobenzenesulphonamide] registered a melting point of 199 to 200 °C.

For the compound `COc1nc(NC(=O)CO)cnc1NS(=O)(=O)c1cccc(Cl)c1Cl` [Example 200, N-[5-(2,3-Dichlorophenylsulphonylamino)-6-methoxy-2-pyrazinyl]-2-hydroxyacetamide], the melting point lay within 153 to 155 °C.

The compound `COc1nc(C)cnc1NS(=O)(=O)c1ccc(Cl)c(Cl)c1` [Example 48, 3,4-Dichloro-N-(3-methoxy-5-methyl-2-pyrazinyl)benezenesulphonamide] showed a melting point of 148 to 149 °C.

In turn, `COC(=O)c1cccc(COc2nc(Cl)cnc2NS(=O)(=O)c2cccc(Cl)c2Cl)c1` [Example 104, 3-[6-Chloro-3-(2,3-dichlorobenzenesulphonylamino)-2-pyrazinyloxymethyl]benzoic acid methyl ester] returned a melting point of 175 to 176 °C.

Compound `C=CCOc1cnc(NS(=O)(=O)c2cccc(Cl)c2Cl)c(OC)n1` [Example 139, N-(5-Allyloxy-3-methoxy-2-pyrazinyl)-2,3-dichlorobenzenesulphonamide] registered a melting point of 120 to 121 °C.

Compound `COc1nc(Cl)c(Cl)nc1NS(=O)(=O)c1ccc(Cl)c(Cl)c1` [Example 64, 3,4-Dichloro-N-(5,6-dichloro-3-methoxy-2-pyrazinyl)benzenesulphonamide] yielded a melting point of 189 to 191 °C.

For `COc1nc(Cl)c(Cl)nc1NS(=O)(=O)c1ccccc1Cl` [Example 60, 2-Chloro-N-(5,6-dichloro-3-methoxy-2-pyrazinyl)benzenesulphonamide], the melting point lay in the range of 217 to 218 °C.

Turning to `Cn1cc(COc2nc(Br)cnc2NS(=O)(=O)c2cccc(Cl)c2Cl)ccc1=O` [Example 32, N-[5-Bromo-3-(1-methyl-6-oxo-1,6-dihydro-3-pyridinylmethoxy)-2-pyrazinyl]-2,3-dichlorobenzenesulphonamide], the melting point lay within 169 to 170 °C.

In turn, `Cc1cnc(NS(=O)(=O)c2cccc(Cl)c2Cl)c(OCc2cccnn2)n1` [Example 27, 2,3-Dichloro-N-[5-methyl-3-(3-pyridazinylmethoxy)-2-pyrazinyl]benzenesulphonamide] came in with a melting point of 119 to 124 °C.

As to `O=S(=O)(Nc1ncc(Br)nc1OCc1cnccn1)c1cccc(Cl)c1Cl` [Example 31, N-[5-Bromo-3-(2-pyrazinylmethoxy)-2-pyrazinyl]-2,3-dichlorobenzenesulphonamide], the melting point was in the range of 207 to 209 °C.

For the compound `COc1nc(COc2cnccn2)cnc1NS(=O)(=O)c1cccc(Cl)c1Cl` [Example 140, 2,3-Dichloro-N-{3-methoxy-5-[(pyrazinyloxy)methyl]-2-pyrazinyl}benzenesulphonamide], the melting point was 155 °C (dec.).

`COc1nc(Cl)cnc1NS(=O)(=O)c1cccc(F)c1Cl` [Example 130, 2-Chloro-N-(5-chloro-3-methoxy-2-pyrazinyl)-3-fluorobenzenesulphonamide] gave a melting point of 159 to 159.5 °C.

`COc1ccc(COc2nc(Cl)cnc2NS(=O)(=O)c2cccc(Cl)c2Cl)cc1` [Example 97, 2,3-Dichloro-N-[5-chloro-3-(4-methoxyphenylmethoxy)-2-pyrazinyl]benzenesulphonamide] had a melting point of 163 to 164 °C.

The compound `COc1nc(Br)cnc1NS(=O)(=O)c1ccccc1OC(F)(F)F` [Example 49, N-(5-Bromo-3-methoxy-2-pyrazinyl)-2-trifluoromethoxybenezenesulphonamide] gave a melting point of 156 to 157 °C.

Take `COC(=O)CSc1cnc(NS(=O)(=O)c2cccc(Cl)c2Cl)c(OC)n1` [Example 82, [5-(2,3-Dichlorobenzenesulphonylamino)-6-methoxy-2-pyrazinylsulphanyl]acetic acid methyl ester]: the melting point lay within 152 to 153 °C.

In turn, `COc1nc(NCCNC(C)=O)c(Cl)nc1NS(=O)(=O)c1cccc(Cl)c1Cl` [Example 76, N-{2-[3-Chloro-5-(2,3-dichlorobenzenesulphonylamino)-6-methoxy-2-pyrazinylamino]ethyl}acetamide] displayed a melting point of 150 to 152 °C.

For the compound `COc1nc(C)cnc1NS(=O)(=O)c1cccc(Cl)c1C` [Example 43, 3-Chloro-N-(3-methoxy-5-methyl-2-pyrazinyl)-2-methylbenezenesulphonamide], the melting point lay in the range of 133 to 135 °C.

Compound `COc1ncc(CO)nc1NS(=O)(=O)c1cccc(Cl)c1Cl` [Example 202, 2,3-Dichloro-N-[6-(hydroxymethyl)-3-methoxy-2-pyrazinyl]benzenesulphonamide] gave a melting point of 153 to 155 °C.

The compound `Cc1cnc(NS(=O)(=O)c2cccc(Cl)c2Cl)c(OCc2cccnc2)n1` [Example 24, 2,3-Dichloro-N-[5-methyl-3-(3-pyridinylmethoxy)-2-pyrazinyl]benzenesulphonamide] came in with a melting point of 160 to 161 °C.

As to `COc1nc(S(C)(=O)=O)cnc1NS(=O)(=O)c1cccc(Cl)c1Cl` [Example 203, 2,3-Dichloro-N-(5-methanesulphonyl-3-methoxy-2-pyrazinyl)benzenesulphonamide], the melting point was 237 to 238 °C.

The compound `O=S(=O)(Nc1ncc(Cl)nc1Cl)c1cccc(Cl)c1Cl` [Example 74, 2,3-Dichloro-N-(3,5-dichloro-2-pyrazinyl)benzenesulphonamide] showed a melting point of 181 to 182 °C.
